“Also recorded” adds a separate entry of the source.
Tests used:
[1] = tested on: Tumor Necrosis Factor-alpha (TNF-α); test: ELISA for TNF-α in culture media of EpiDermFT tissue inoculated with C. acnes; format: cell-based, human; settings: C. acnes ATCC 11827 48 hours, 24-hour treatment
Method: (§1) EpiDermFT (EFT-400, MatTek Europe, Bratislava Slovak Republic) is a multilayered reconstituted model of the human dermis and epidermis, formed by culturing normal, human epidermal keratinocytes (NHEK) and normal, human dermal fibroblasts (NHFB). […] The dermal compartment is composed of a collagen matrix containing viable normal human dermal fibroblasts (NHDF). […] Testing was conducted on EpiDermFT in 12-well plates filled with culture medium without antibiotics at 37° C., 5% CO2, saturated humidity (90% RH). Inoculum-6 μL of lipid mix (olive oil and neutral triacylglycerol mixed 1:1) and 60 μL of C. acnes ATCC 11827, 10^7-10^8 CFU/mL-was applied to EpiDerm tissue for 48 hours. […] At the end of the treatment period, culture media was collected and stored at -20° C. for subsequent analysis by ELISA immunoassay for two inflammatory markers TNF-α and C[…] using commercially-available test kits-QuantikineTM ELISA Human Caspase-1/ICE Immunoassay and Human TNF-α Immunoassay both from R&D Systems, Inc. (Minneapolis, MN), Catalog Number DCA100 and DTAOOD, respectively.

[2] = tested on: Caspase-1 (CASP-1); test: ELISA for Caspase-1 in culture media of EpiDermFT tissue inoculated with C. acnes; format: cell-based, human; settings: C. acnes ATCC 11827 48 hours, 24-hour treatment
Method: as §1

[3] = ethanol / ethyl alcohol, normal temperatures; cited from earlier work
[4] = cited from earlier work

Row | CASP-1 inflammatory response versus the C. acnes treated control [2] | Structure (SMILES) | TNF-α inflammatory response versus the C. acnes treated control [1] | stability of azelaic acid in ethanol [3] | solvent quality for azelaic acid ([4]; isopropanol) | maximum azelaic acid dissolved in water ([4]; water)
1 | increased inflammatory response | O=C(O)c1ccccc1O [Group 1, salicylic acid] | increased inflammatory response |  |  | 
2 |  | O=C(O)CCCCCCCC(=O)O [azelaic acid, Azelaic acid] |  | unstable; also recorded: instability | good | ≤ 0.24 % by weight (w/w)

Source: patent US20260232808A1, “Dicarboxylic Acid Concentrates” (Vantage Specialty Ingredients, Inc., priority 2023, published 2026)
